Measured values from US11746111B2, “Siderophore conjugated pyrazolidinones, and analogues thereof” (YALE UNIVERSITY, priority 2018, dated 2023).
In brackets after ≈: the same amount, converted by molar mass. Where two headings read alike, the source gives them in different places.

What was measured:
[1] = tested on: K. pneumoniae clinical isolates; assay: Microdilution broth MIC, K. pneumoniae clinical isolates (Table 1); format: cell-based; conditions: Klebsiella pneumoniae
Protocol: (§1) Microdilution Broth Minimum Inhibitory Concentrations (MICs)
(§2) MICs were performed in triplicate in cation adjusted Mueller-Hinton (MH) broth 30 according to CLSI guidelines. Firstly, overnight cultures of E. coli and K. pneumoniae clinical isolates were inoculated into 5 ml MH broth to OD600=0.1 and grown to OD600=0.224 (approximately 1-2×10^8 CFU/ml). These cultures were diluted (3 μl+4997 μl MH) and 100 μl inoculated into each well of a 96-well plate containing 100 μl of serial dilutions of compound 26 (YU253434), ampicillin, ceftazidime, or imipenem. The plates were placed in a 37° C. incubator for 18-20 hours and wells checked for growth.

[2] = tested on: E. coli clinical isolates; assay: Microdilution broth MIC, E. coli clinical isolates (Table 1); format: cell-based; conditions: Escherichia coli, read-out: MIC
Protocol: as §1, §2

[3] = tested on: E. coli; assay: MIC versus E. coli strains incl. Class B metallo beta lactamases (Table 2); format: cell-based; conditions: Escherichia coli
Description: (§3) Tables 2 and 3 show MIC values of compound 26 (YU253434) and 42 YU253911 versus E. coli and P. Aeruginosa strains containing Class B metallo beta lactamases VIM and NDM compared with Meropenem as a standard.

[4] = tested on: Pseudomonas aeruginosa; assay: MIC versus Pseudomonas aeruginosa strains incl. Class B metallo beta lactamases (Table 3); format: cell-based
Description: as §3

[5] = molecular target: Pseudomonas aeruginosa penicillin binding protein 3 (PBP3) (Pseudomonas aeruginosa, UniProt G3XD46); assay: Inhibition of penicillin binding protein 3 (Bocillin based assay); conditions: Pseudomonas aeruginosa PBP3 (FIG. 5)
Chain of Pseudomonas aeruginosa penicillin binding protein 3 (PBP3) (G3XD46 whole entry): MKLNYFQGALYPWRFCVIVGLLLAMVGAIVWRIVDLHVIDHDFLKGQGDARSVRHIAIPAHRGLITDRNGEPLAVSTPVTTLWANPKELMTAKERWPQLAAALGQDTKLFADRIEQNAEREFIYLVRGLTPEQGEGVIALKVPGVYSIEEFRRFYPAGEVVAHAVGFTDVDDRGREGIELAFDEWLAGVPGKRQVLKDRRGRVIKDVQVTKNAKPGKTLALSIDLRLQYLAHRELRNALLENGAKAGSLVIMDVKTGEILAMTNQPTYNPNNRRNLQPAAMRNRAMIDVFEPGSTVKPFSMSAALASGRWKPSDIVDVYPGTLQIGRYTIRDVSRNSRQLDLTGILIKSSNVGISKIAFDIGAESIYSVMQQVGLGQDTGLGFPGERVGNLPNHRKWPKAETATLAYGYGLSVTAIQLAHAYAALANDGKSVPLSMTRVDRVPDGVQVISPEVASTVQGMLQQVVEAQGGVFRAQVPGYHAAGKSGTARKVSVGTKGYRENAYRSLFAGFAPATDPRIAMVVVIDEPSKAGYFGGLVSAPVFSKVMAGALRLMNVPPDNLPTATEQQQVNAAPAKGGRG
Description: FIG. 5 is a graph showing compound 26 inhibiting Pseudomonas aeruginosa penicillin binding protein 3 (PBP3).
To assess the affinity of the inhibitors for PBP3 and PBP1a and PBP1b, a Bocillin based assay using PA01 membranes as well as purified proteins is used. Delineation of remarkably active compounds occurs by establishing the MIC90 against Ec, Pa, Ab and Kp as well as static time kill measurement. When siderophore linked pyrazolidinone agents show remarkable activity (i.e. activity equal to or greater than current clinical agents Meropenem or Aztreonam) in these latter secondary assays, they are tested in vivo in a mouse septicemia efficacy model after protein binding measurement and will show potent in vivo activity.

In the case of `CC(C)(O/N=C(\C(=O)N[C@H]1CN2CC(C(=O)NCCN3C(=O)c4cc(O)c(O)cc4C3=O)=C(C(=O)O)N2C1=O)c1csc(N)n1)C(=O)O` [Compound 26, (S,Z)-6-(2-(2-aminothiazol-4-yl)-2-(((2-carboxypropan-2-yl)oxy)imino)acetamido)-2-((2-(5,6-dihydroxy-1,3-dioxoisoindolin-2-yl)ethyl)carbamoyl)-5-oxo-6,7-dihydro-1H,5H-pyrazolo[1,2-a]pyrazole-3-carboxylic acid], the MIC ([1]; K. pneumoniae 7000063, β-lactamase SHV-18, read-out: MIC) is reported as 2 µg/mL (≈ 2.91 µM), the MIC ([1]; K. pneumoniae KB390 Quale, TEM-30, TEM-1, KPC-2, SHV-12, read-out: MIC) is reported as 2 µg/mL (≈ 2.91 µM) and the MIC ([1]; K. pneumoniae LC40, CTX-M-1 grp(15), TEM (164S), read-out: MIC) is reported as 16 µg/mL (≈ 23.3 µM). For the same compound, the MIC ([1]; K. pneumoniae LC56, CTX-M-1 grp(15), read-out: MIC) was 0.5 µg/mL (≈ 0.728 µM), the MIC ([1]; K. pneumoniae LC102, SHV-1 (WT + 238S), read-out: MIC) was 1 µg/mL and the MIC ([1]; K. pneumoniae LC121, SHV-1 (WT + 238S + 240K), read-out: MIC) was 4 µg/mL. The MIC ([1]; K. pneumoniae Rush23, CTX-M-9 group, read-out: MIC) was 2 µg/mL (≈ 2.91 µM), the MIC ([1]; K. pneumoniae VA-368, KPC-2, TEM-1, SHV-5, SHV-68) was 0.25 µg/mL (≈ 0.364 µM) and the MIC ([1]; K. pneumoniae VA-384, KPC-2, TEM-1, SHV-11, SHV-12, SHV-14) was 8 µg/mL (≈ 11.7 µM). It also gave an MIC ([1]; K. pneumoniae VA-398, KPC-3, TEM-1, SHV-11, SHV-12, SHV-27) of 8 µg/mL (≈ 11.7 µM), an MIC ([2]; BAA202, E. coli BAA-202, SHV-1) of 4 µg/mL (≈ 5.83 µM) and an MIC ([2]; E. coli 35218, TEM-1) of 0.125 µg/mL (≈ 0.182 µM). It also gave an MIC ([2]; E. coli LC4, TEM, SHV-12) of 16 µg/mL (≈ 23.3 µM), an MIC ([2]; E. coli LC12, CTX-M-1 grp(15)) of over 128 µg/mL and an MIC ([2]; E. coli LC33, CTX-M-9 group) of 1 µg/mL (≈ 1.46 µM). It also gave an MIC ([2]; E. coli LC38, CTX-M-1 grp(15), PB AmpC (ACT/MIR)) of 0.25 µg/mL (≈ 0.364 µM), an MIC ([2]; E. coli LC41, TEM (238S), PB AmpC (ACT/MIR), CTX-M-1 grp(15)) of 16 µg/mL (≈ 23.3 µM) and an MIC ([2]; E. coli LC77, TEM, KPC) of 0.5 µg/mL (≈ 0.728 µM). The MIC ([2]; E. coli LC81, SHV (238S + 240K)) was 16 µg/mL, the MIC ([2]; E. coli LC98, CMY (group II)) was 4 µg/mL (≈ 5.83 µM) and the MIC ([2]; E. coli LC109, CTX-M-9 group, CMY (group II)) was 0.25 µg/mL (≈ 0.364 µM). The MIC ([2]; E. coli LC111, TEM (164S)) was 1 µg/mL (≈ 1.46 µM), the MIC ([2]; E. coli LC136, SHV (WT + 238S)) was 0.125 µg/mL and the MIC ([2]; E. coli Rush24, CMY (group II)) was 8 µg/mL (≈ 11.7 µM). For the same compound, the MIC ([3]; ATCC25822, E. coli isolate ATCC 25822, CLSI costrol) was 2 µg/mL (≈ 2.91 µM), the MIC ([3]; E. coli isolate AA-118, NDM) was 4 µg/mL (≈ 5.83 µM) and the MIC ([3]; E. coli isolate AA-119, NDM) was 4 µg/mL (≈ 5.83 µM). For the same compound, the MIC ([3]; E. coli isolate AA-128, NDM) was 4 µg/mL (≈ 5.83 µM), the MIC ([3]; E. coli isolate AK-114, KPC-3, TEM-18) was 0.5 µg/mL (≈ 0.728 µM) and the MIC ([3]; E. coli isolate AR-1, KPC-3) was 1 µg/mL (≈ 1.46 µM). For the same compound, the MIC ([3]; E. coli isolate AR-11, CTX-M-15, OxA-1) was 0.5 µg/mL (≈ 0.728 µM), the MIC ([3]; E. coli isolate AR-137, NDM-6) was 4 µg/mL (≈ 5.83 µM) and the MIC ([3]; E. coli isolate AR-145, NDM) was over 64 µg/mL. It also gave an MIC ([3]; E. coli isolate J4244, MN) of 2 µg/mL (≈ 2.91 µM), an MIC ([3]; E. coli isolate J4245, Michigan) of 0.25 µg/mL (≈ 0.364 µM) and an MIC ([4]; ATCC27853, P. aeruginosa isolate ATCC 27853, CLSI control) of 0.25 µg/mL (≈ 0.364 µM). The MIC ([4]; P. aeruginosa isolate AR-229, OXA-50) was 0.25 µg/mL (≈ 0.364 µM), the MIC ([4]; P. aeruginosa isolate AR-230, VIM-2) was 1 µg/mL (≈ 1.46 µM) and the MIC ([4]; P. aeruginosa isolate AR-231, KPC-5) was 0.5 µg/mL (≈ 0.728 µM). It also gave an MIC ([4]; P. aeruginosa isolate AR-232, OXA-50) of 0.5 µg/mL (≈ 0.728 µM), an MIC ([4]; P. aeruginosa isolate AR-245, VIM) of 0.5 µg/mL (≈ 0.728 µM) and an MIC ([4]; P. aeruginosa isolate AR-249, VIM) of 1 µg/mL (≈ 1.46 µM). It also gave an MIC ([4]; P. aeruginosa isolate AR-252) of 1 µg/mL (≈ 1.46 µM), an MIC ([4]; P. aeruginosa isolate AR-254, VIM) of 2 µg/mL (≈ 2.91 µM) and an MIC ([4]; P. aeruginosa isolate AR-270, OXA-50) of 0.25 µg/mL (≈ 0.364 µM). For the same compound, the MIC ([4]; P. aeruginosa isolate J4242, UNC-D) was 0.5 µg/mL (≈ 0.728 µM) and the IC50 [5] was 2500 ± 500 nM.
